Test results from patent publication EP2966448B1, “METHOD FOR THE PREDICTION OR PROGNOSIS OF THE RESPONSE OF A HUMAN SUBJECT SUFFERING FROM CANCER TO TREATMENT WITH AN ANTAGONIST OF THE NK1 RECEPTOR” (priority 2013, dated 2014).
Like-named read-outs stand apart in the source and are kept apart here.

How the values were obtained:
[1] = tested on: Ovarian carcinoma (Adenocarcinoma); assay: Inhibition of primary tumor cell cultures vs Kras mutation (Example 2); format: cell-based, human; details: Homo sapiens, Cases with Kras mutated; 100 micromolar; read-out: Percentage of inhibition of cell cultures
Description: (§1) Cell cultures. […] Briefly, small pieces of the tumors were digested into a hyaluronidase solution (Sigma-Aldrich, USA) at a concentration of 1 mg/ml during 15 minutes at 37°C, and then they were treated with 6 mg/ml of collagenase type IV (Invitrogen) during 2 hours at 37°C. Consecutively, cells were washed, and resuspended in the DMEM culture medium with high concentration of glucose (Dulbecco's Modified Eagle's Medium, Invitrogen) supplemented with 1% of antibiotics-antimycotics (Invitrogen) and with 1% of sodium pyruvate (Invitrogen), and the cells were seeded in culture slides at a concentration of 10.000 cells per square centimeter. When cells reached confluence, the adherent cells were separated using sterile trypsin at 0,5% (Invitrogen) and they were used among passages 3 and 9. For the assays shown next, tumor cells were seeded on slides at a concentration of 25.000 cells per well. A total of 6 wells containing the tumor cells were used as survival control. […] All the cultures were kept during 48 hours and later on recollected for their analysis.
(§2) In each case the presence or not of mutations in K-ras gene was determined.
(§3) To determine the existence of mutations in the K-ras gene DNA from cancer tumor cells was extracted from samples obtained from the different cancer tumor cells, using DNA extraction kits from Takara (Madison, WI, US) or Ambion (Huntingdon, Cambridgeshire, United Kingdom), following the manufacturer's instructions, and as it has been previously published (Di Fiore F, et al. 2007). Consecutively it was analyzed by sequencing the exon 2 of the KRAS gene, , by means of PCR amplification from previously extracted cancer tumor DNA, using the following sense primer (SEQ ID NO. 15): 5'-[sequence]-3' and anti-sense primer (SEQ ID NO. 16): 5'-[sequence]-3'. After the purification using the Qiagen extraction kit, the PCR products were sequenced using the Big Dye Terminator Kit V3.1 (Applied Biosystems, Foster City, CA, U.S.) and an ABI Prism 377 or 3100 DNA sequencer (Applied Biosystems). The presence of a heterozygous mutation in the KRAS gene in cancer tumor cells of the cultures was defined as the appearance of a mutant peak of a height of at least a third of the wild type. All the sequence analysis were executed at least twice in two independent PCR.
(§4) The antibody against NK1 receptor (Table 16) was used at 1/50 concentration. The percentages of inhibition are expressed in percentage of variation in relation to control ± standard deviation.

[2] = tested on: Breast carcinoma (ductal adenocarcinoma); assay: as above; format: cell-based, human; details: Homo sapiens, Cases with Kras mutated; 100 micromolar; read-out: Percentage of inhibition of cell cultures
Description: as §1, §2, §3, §4

Hodgkin lymphoma = assay: Inhibition of primary tumor cell cultures (48 hours) vs NK1 receptor immunostaining (Example 1); format: cell-based; details: Homo sapiens, 1 micromolar, read-out: Percentage of inhibition of cell cultures
Description: (§5) Cell cultures. To obtain tumor cells from human primary tumors we used the method described in De Bari et al. (De Bari et al. 2001). Briefly, small pieces of the tumors were digested into a hyaluronidase solution (Sigma-Aldrich, USA) at a concentration of 1 mg/ml during 15 minutes at 37°C, and then they were treated with 6 mg/ml of collagenase type IV (Invitrogen) during 2 hours at 37°C. Consecutively, cells were washed, and resuspended in the DMEM culture medium with high concentration of glucose (Dulbecco's Modified Eagle's Medium, Invitrogen) supplemented with 1% of antibiotics-antimycotics (Invitrogen) and with 1% of sodium pyruvate (Invitrogen), and the cells were seeded in culture slides at a concentration of 10.000 cells per square centimeter. When cells reached confluence, the adherent cells were separated using sterile trypsin at 0,5% (Invitrogen) and they were used among passages 3 and 9. For the assays shown next, tumor cells were seeded on slides at a concentration of 25.000 cells per well. A total of 6 wells containing the tumor cells were used as survival control. […] All the cultures were kept during 48 hours and later on recollected for their analysis.
(§6) Immunohistochemistry techniques. The presence of NK1 receptors was also analyzed using immunohistochemistry techniques. Briefly, a sample of each of the cultures of the cell lines used in the present invention, was centrifuged (5 minutes at 1.500 rpm) and the pellet obtained was dehydrated using increasing concentrations of ethanol and, finally, xylol. Then, said dehydrated samples were embedded in paraffin, creating a block of cells. Such paraffin blocks were cut with a microtome at 5 microns thickness, and were placed on microscope slides adequate to perform immunohistochemistry techniques. Consecutively, they were de-paraffinized by immersing them in xylol, to be finally hydrated using a solution containing decreasing concentrations of ethanol, and finally submerged them into water. […] After this, the samples were left to cool down at room temperature for 10 minutes. The endogenous peroxidase activity was blocked with 3% peroxide of hydrogen for 30 minutes at room temperature. After washing the samples with 0.05 M of Tris buffer, they were incubated with 10% non-immune pork serum at for 30 minutes at room temperature. To analyze the expression of NK1 receptors, the cellular samples were incubated in the presence of anti-NK1 antibodies (S8305, Sigma-Aldrich) diluted 1:1000, overnight at 4°C. Afterwards, the samples were washed in Tris buffer 0.05 M at room temperature. The next step was the addition of Envision System-HRP (Dako) reagents for 30 minutes at room temperature. Then, the samples were washed again in Tris buffer 0.05 M and the immunoreactivity was visualized through light microscopy with a chromogenic solution containing 3,3'-Diaminobenzidine (DAB+; Dako, USA). To differentiate the cell nuclei, they were slightly stained with hematoxylin. As negative control, it was used samples not incubated with the primary antibody anti-NK1, which was replaced by non-immune serum. All the samples were evaluated.
(§7) To value the immunostaining in each of the cases six cuts were performed to be analyzed by the immunohistochemistry technique. In each of the six cuts, it was counted cells in 20 fields (magnification 400x) using an Olympus microscope (model CX31). In each field it was counted the total number of cells and the number of cells presenting immunostaining, calculating afterwards the percentage of cells which presented immunostaining.

Breast carcinoma = assay: as above; format: cell-based; details: Homo sapiens, 1 micromolar, read-out: Percentage of inhibition of cell cultures
Description: as §5, §6, §7

[3] = tested on: human primary tumor cells; assay: Inhibition of primary tumor cell cultures vs absence or presence of AKT protein (Example 4; tumor type per table line); format: cell-based; details: Non Hodgkin Lymphoma B (diffuse B cell lymphoma); cases with presence of AKT; 100 micromolar
Description: as §1
Afterwards, the cells were cultured in presence of several antagonists of the NK1 receptor.
In each case it was determined the presence or absence of the AKT protein effector downstream in the PI3 Kinases pathway.
To determine the presence of the AKT protein in the different cultures Western Blot technique was performed (following the description in example 1-Western Blot section), but using as primary antibody with reference: Akt (pan) (11E7) Rabbit mAb (4685, Cell Signalling).
The antibody against NK1 receptor (Table 26) was used at 1/50 concentration. The percentages of inhibition are expressed in percentage of variation in relation to control ± standard deviation.

[4] = tested on: Lung carcinoma (small cell lung carcinoma); assay: Inhibition of primary tumor cell cultures vs Kras mutation (Example 2); format: cell-based, human; details: Homo sapiens, Cases with Kras mutated; 100 micromolar; read-out: Percentage of inhibition of cell cultures
Description: (§8) To obtain tumor cells from human primary tumors we used the method described in De Bari et al. (De Bari et al. 2001). Briefly, small pieces of the tumors were digested into a hyaluronidase solution (Sigma-Aldrich, USA) at a concentration of 1 mg/ml during 15 minutes at 37°C, and then they were treated with 6 mg/ml of collagenase type IV (Invitrogen) during 2 hours at 37°C. Consecutively, cells were washed, and resuspended in the DMEM culture medium with high concentration of glucose (Dulbecco's Modified Eagle's Medium, Invitrogen) supplemented with 1% of antibiotics-antimycotics (Invitrogen) and with 1% of sodium pyruvate (Invitrogen), and the cells were seeded in culture slides at a concentration of 10.000 cells per square centimeter. When cells reached confluence, the adherent cells were separated using sterile trypsin at 0,5% (Invitrogen) and they were used among passages 3 and 9. For the assays shown next, tumor cells were seeded on slides at a concentration of 25.000 cells per well. A total of 6 wells containing the tumor cells were used as survival control. […] All the cultures were kept during 48 hours and later on recollected for their analysis.
as §2, §3, §4

[5] = tested on: Non Hodgkin Lymphoma B (diffuse B cell lymphoma); assay: as above; format: cell-based, human; details: Homo sapiens, B-cell, Cases with Kras mutated; 100 micromolar; read-out: Percentage of inhibition of cell cultures
Description: as §5, §2, §3
(§9) The percentages of inhibition are expressed in percentage of variation in relation to control ± standard deviation.

Leukemia B = assay: Inhibition of primary tumor cell cultures (48 hours) vs NK1 receptor immunostaining (Example 1); format: cell-based; details: Homo sapiens, 1 micromolar, read-out: Percentage of inhibition of cell cultures
Description: as §5, §6, §7

Myeloma = assay: as above; format: cell-based; details: Homo sapiens, 1 micromolar, read-out: Percentage of inhibition of cell cultures
Description: as §5, §6, §7

[6] = tested on: Thyroid carcinoma (papillary carcinoma); assay: Inhibition of primary tumor cell cultures vs Kras mutation (Example 2); format: cell-based, human; details: Homo sapiens, Cases with Kras mutated; 100 micromolar; read-out: Percentage of inhibition of cell cultures
Description: as §8, §2, §3, §4

Ewing Sarcoma = assay: Inhibition of primary tumor cell cultures (48 hours) vs NK1 receptor immunostaining (Example 1); format: cell-based; details: Homo sapiens, 1 micromolar, read-out: Percentage of inhibition of cell cultures
Description: as §5, §6, §7

Prostate carcinoma [7] = assay: cells; details: Homo sapiens, 1 micromolar
Description: as §5, §6, §7

[8] = tested on: human primary tumor cells; assay: Inhibition of primary tumor cell cultures vs low or high expression of the truncated form of NK1 receptor (Example 5; tumor type per table line); format: cell-based; details: 100 micromolar
Description: as §5
The presence of the truncated form of NK1 receptor was determined and then cells were cultured in presence of several antagonists of the NK1 receptor.
In each case the presence of the truncated form of the NK1 receptor was determined.
To determine the presence of the truncated form of the gene of NK1 receptor PCR technique was performed (Polymerase Chain Reaction). The extraction of RNA, amplifications of PCR, cycle conditions and quantitative analysis were executed as it has been previously described. The specific primers were the following: For the full-length NK1R receptor (NM_001058.3; forward (SEQ ID NO: 17)-: 5'-[sequence]-3 ' and reverse- (SEQ ID NO:18): 5'-[sequence]-3') and for the truncated NK1receptor (NM_015727.2; forward (SEQ ID NO: 19): 5'-[sequence]-3 and reverse (SEQ ID NO;20): 5'-[sequence]-3').
Cases were distributed in two groups: • Group A -low expression of the truncated form of NK1 receptor- for those cases wherein the expression of the truncated form of NK1 receptor was less than double the expression of the full length form of such receptor. • Group B -high expression of the truncated form of NK1 receptor- for those cases wherein the expression of the truncated form of the NK1 receptor was higher than double the expression of the full length form of such receptor.
The percentages of inhibition are expressed in percentage of variation in relation to the control ± standard deviation.

Endometrium carcinoma = assay: Inhibition of primary tumor cell cultures vs Kras mutation (Example 2); format: cell-based, human; details: Homo sapiens, Cases with Kras mutated; 100 micromolar; read-out: Percentage of inhibition of cell cultures
Description: as §1, §2, §3, §4

Renal cell carcinoma = assay: Inhibition of primary tumor cell cultures (48 hours) vs NK1 receptor immunostaining (Example 1); format: cell-based; details: Homo sapiens, 1 micromolar, read-out: Percentage of inhibition of cell cultures
Description: as §5, §6, §7

[9] = tested on: Thyroid carcinoma (papillary type); assay: as above; format: cell-based; details: Homo sapiens, 1 micromolar, read-out: Percentage of inhibition of cell cultures
Description: as §5, §6, §7

[10] = tested on: Carcinoma of the uterine cervix; assay: as above; format: cell-based; details: Homo sapiens, 1 micromolar, read-out: Percentage of inhibition of cell cultures
Description: as §5, §6, §7

Glioma = assay: as above; format: cell-based; details: Homo sapiens, 1 micromolar, read-out: Percentage of inhibition of cell cultures
Description: as §5, §6, §7

[11] = tested on: Undifferentiated Pleomorphic Sarcoma (malignant fibrous histiocytoma grade 3); assay: Inhibition of primary tumor cell cultures vs Kras mutation (Example 2); format: cell-based, human; details: Homo sapiens, Cases with Kras mutated; 100 micromolar; read-out: Percentage of inhibition of cell cultures
Description: as §5, §2, §3, §9

Prostate carcinoma [12] = assay: as above; format: cell-based, human; details: Homo sapiens, Cases with Kras mutated; 100 micromolar; read-out: Percentage of inhibition of cell cultures
Description: as §5, §2, §3, §9

[13] = tested on: Thyroid carcinoma (folliculary type); assay: Inhibition of primary tumor cell cultures (48 hours) vs NK1 receptor immunostaining (Example 1); format: cell-based; details: Homo sapiens, 1 micromolar, read-out: Percentage of inhibition of cell cultures
Description: as §5, §6, §7

Non Hodgkin Lymphoma B = assay: as above; format: cell-based; details: Homo sapiens, 1 micromolar, read-out: Percentage of inhibition of cell cultures
Description: as §5, §6, §7

[14] = tested on: Melanoma (Nodular Melanoma); assay: Inhibition of primary tumor cell cultures vs Kras mutation (Example 2); format: cell-based, human; details: Homo sapiens, Cases with Kras mutated; 100 micromolar; read-out: Percentage of inhibition of cell cultures
Description: as §5, §2, §3, §9

[15] = NK1 receptor immunostaining Group 1 (less than 20% of the cells)
[16] = NK1 receptor immunostaining Group 2 (20-80% of the cells)
[17] = NK1 receptor immunostaining Group 3 (more than 80% of the cells)
[18] = NK1 receptor immunostaining Intensity grade 1
[19] = NK1 receptor immunostaining Intensity grade 2
[20] = NK1 receptor immunostaining Intensity grade 3

**Q.** Which results are given for `C[C@@H](O[C@H]1OCCN(Cc2n[nH]c(=O)[nH]2)[C@H]1c1ccc(F)cc1)c1cc(C(F)(F)F)cc(C(F)(F)F)c1` [Aprepitant]?
**A.** inhibition at 100 µM [1]: 24 ± 5%; inhibition at 100 µM [2]: 22 ± 2%; inhibition at 1 µM (Hodgkin lymphoma; [15]): 10 ± 3%; inhibition at 1 µM (Hodgkin lymphoma; [16]): 49 ± 3%; inhibition at 1 µM (Hodgkin lymphoma; [17]): 94 ± 5%; inhibition at 1 µM (Hodgkin lymphoma; [18]): 26 ± 5%; inhibition at 1 µM (Hodgkin lymphoma; [19]): 55 ± 3%; inhibition at 1 µM (Hodgkin lymphoma; [20]): 92 ± 6%; inhibition at 1 µM (Breast carcinoma; [15]): 11 ± 1%; inhibition at 1 µM (Breast carcinoma; [16]): 46 ± 3%; inhibition at 1 µM (Breast carcinoma; [17]): 94 ± 5%; inhibition at 1 µM (Breast carcinoma; [18]): 28 ± 6%; inhibition at 1 µM (Breast carcinoma; [19]): 58 ± 5%; inhibition at 1 µM (Breast carcinoma; [20]): 95 ± 7%; Percentage of inhibition of cell cultures [3]: 95±3 percentage; inhibition at 100 µM [4]: 22 ± 4%; inhibition at 100 µM [5]: 27 ± 5%; inhibition at 1 µM (Leukemia B; [15]): 11 ± 2%; inhibition at 1 µM (Leukemia B; [16]): 43 ± 4%; inhibition at 1 µM (Leukemia B; [17]): 95 ± 4%; inhibition at 1 µM (Leukemia B; [18]): 28 ± 5%; inhibition at 1 µM (Leukemia B; [19]): 54 ± 5%; inhibition at 1 µM (Leukemia B; [20]): 95 ± 6%; inhibition at 1 µM (Myeloma; [15]): 11 ± 2%; inhibition at 1 µM (Myeloma; [16]): 46 ± 5%; inhibition at 1 µM (Myeloma; [17]): 95 ± 4%; inhibition at 1 µM (Myeloma; [18]): 28 ± 5%; inhibition at 1 µM (Myeloma; [19]): 55 ± 3%; inhibition at 1 µM (Myeloma; [20]): 92 ± 5%; inhibition at 100 µM [6]: 25 ± 4%; inhibition at 1 µM (Ewing Sarcoma; [15]): 11 ± 2%; inhibition at 1 µM (Ewing Sarcoma; [16]): 48 ± 6%; inhibition at 1 µM (Ewing Sarcoma; [17]): 94 ± 6%; inhibition at 1 µM (Ewing Sarcoma; [18]): 27 ± 6%; inhibition at 1 µM (Ewing Sarcoma; [19]): 57 ± 4%; inhibition at 1 µM (Ewing Sarcoma; [20]): 95 ± 6%; inhibition at 1 µM (Prostate carcinoma [7]; read-out: Percentage of inhibition of cell cultures, NK1 receptor immunostaining Group 1 (less than 20% of the cells)): 11 ± 3%; inhibition at 1 µM (Prostate carcinoma [7]; read-out: Percentage of inhibition of cell cultures, NK1 receptor immunostaining Group 2 (20-80% of the cells)): 46 ± 6%; inhibition at 1 µM (Prostate carcinoma [7]; read-out: Percentage of inhibition of cell cultures, NK1 receptor immunostaining Group 3 (more than 80% of the cells)): 95 ± 5%; inhibition at 1 µM (Prostate carcinoma [7]; read-out: Percentage of inhibition of cell cultures, NK1 receptor immunostaining Intensity grade 1): 27 ± 5%; inhibition at 1 µM (Prostate carcinoma [7]; read-out: Percentage of inhibition of cell cultures, NK1 receptor immunostaining Intensity grade 2): 58 ± 6%; inhibition at 1 µM (Prostate carcinoma [7]; read-out: Percentage of inhibition of cell cultures, NK1 receptor immunostaining Intensity grade 3): 93 ± 7%; Percentage of inhibition of cell cultures ([8]; Non Hodgkin Lymphoma B (diffuse B cell lymphoma), Cases with low expression of the truncated form of NK1 receptor (Group A)): 23±4 percentage; Percentage of inhibition of cell cultures ([8]; Non Hodgkin Lymphoma T (diffuse T cell lymphoma), Cases with high expression of the truncated form of NK1 receptor (Group B)): 98±6 percentage; Percentage of inhibition of cell cultures ([8]; Ovarian carcinoma (Adenocarcinoma), Cases with low expression of the truncated form of NK1 receptor (Group A)): 29±3 percentage; inhibition at 100 µM (Endometrium carcinoma): 25 ± 4%; inhibition at 1 µM (Renal cell carcinoma; [15]): 10 ± 3%; inhibition at 1 µM (Renal cell carcinoma; [16]): 45 ± 4%; inhibition at 1 µM (Renal cell carcinoma; [17]): 93 ± 6%; inhibition at 1 µM (Renal cell carcinoma; [18]): 27 ± 6%; inhibition at 1 µM (Renal cell carcinoma; [19]): 57 ± 6%; inhibition at 1 µM (Renal cell carcinoma; [20]): 95 ± 6%; inhibition at 1 µM [9, 15]: 10 ± 3%; inhibition at 1 µM [9, 16]: 47 ± 3%; inhibition at 1 µM [9, 17]: 97 ± 6%; inhibition at 1 µM [9, 18]: 27 ± 6%; inhibition at 1 µM [9, 19]: 56 ± 4%; inhibition at 1 µM [10, 15]: 10 ± 2%; inhibition at 1 µM [10, 16]: 48 ± 5%; inhibition at 1 µM [10, 17]: 95 ± 5%; inhibition at 1 µM [10, 18]: 27 ± 4%; inhibition at 1 µM [10, 19]: 56 ± 4%; inhibition at 1 µM [10, 20]: 95 ± 4%; inhibition at 1 µM (Glioma; [15]): 11 ± 4%; inhibition at 1 µM (Glioma; [16]): 47 ± 4%; inhibition at 1 µM (Glioma; [17]): 94 ± 6%; inhibition at 1 µM (Glioma; [18]): 28 ± 7%; inhibition at 1 µM (Glioma; [19]): 55 ± 6%; inhibition at 1 µM (Glioma; [20]): 97 ± 4%; inhibition at 100 µM [11]: 24 ± 3%; inhibition at 100 µM (Prostate carcinoma [12]): 24 ± 3%; inhibition at 1 µM [13, 15]: 10 ± 2%; inhibition at 1 µM [13, 16]: 45 ± 2%; inhibition at 1 µM [13, 17]: 97 ± 5%; inhibition at 1 µM [13, 18]: 26 ± 6%; inhibition at 1 µM [13, 19]: 57 ± 5%; inhibition at 1 µM [13, 20]: 95 ± 5%; inhibition at 1 µM (Non Hodgkin Lymphoma B; [15]): 10 ± 2%; inhibition at 1 µM (Non Hodgkin Lymphoma B; [16]): 47 ± 4%; inhibition at 1 µM (Non Hodgkin Lymphoma B; [17]): 96 ± 5%; inhibition at 1 µM (Non Hodgkin Lymphoma B; [18]): 27 ± 5%; inhibition at 1 µM (Non Hodgkin Lymphoma B; [19]): 55 ± 5%; inhibition at 1 µM (Non Hodgkin Lymphoma B; [20]): 97 ± 6%; inhibition at 100 µM [14]: 26 ± 4%
